Reference: patent publication EP2135864A1, “5-(4-methanesulfonyl-phenyl)-thiazole derivatives for the treatment of acute and chronic inflammatory diseases” (FAES FARMA, S.A., priority 2008, dated 2009)

Assays:
[1] = tested on: TNF-alpha; assay: TNF-alpha production by PBMC of healthy volunteers, ELISA of culture supernatant; assay type: cell-based, human; details: 24 hours, median ± standard error, n=10
Protocol: In order to quantify the serum cytokines concentration, the extracted blood was stored in tubes both with and without anti-coagulant (collected by antecubital venopunction and arterial catheter, respectively). Blood was allowed to coagulate at room temperature in the laboratory, further separating the serum by centrifugation (600xg during 20 minutes). Supernatant were collected, filtered, divided in aliquotes and stored at -70°C. Concentration assays for different cytokines were performed by using the commercial kits described in Table 2. Table 2.- Commercial ELISA kits used in this study
Supernatants were unfrozen up to the room temperature and faced against the respective anti-cytokine by fixing them in the plate bottom and incubating them during a variable time. Subsequently, wash-outs were carried out and the substances recommended by the corresponding company were added in order to allow a colorimetric reaction, in a proportional manner to the amount of cytokine present in the supernatant. The results were assessed with the enzymo-immunoanalysis reader Multititer Plus (Tiertek Multiscan Plus, Flow Laboratories).
The analysis of the standard curves and subsequent interpolation was performed with the software Delta Soft II version 4.1 (Biometallics, Inc.) in an Apple Macintosh computer. Cytokine concentrations were converted to molar in order to calculate the molecular ratios of each case and the number of soluble molecules.
Effects of compound 12 on TNF-alpha production by PBMC of healthy volunteers in the presence or in the absence of LPS were first investigated. PBMC (5 x 10^4 cells/well, 200 µl) from 10 healthy volunteers were cultured in parallel in duplicate in tissue culture plates, 96 well, flat-bottom with low evaporation lid (353072 Falcon, Becton Dickinson labware, Franklin Lakes, USA, 07417-1886 NJ) in complete medium (RPMI-1640 with glutamine Cat BE-12-70F, Cambrex Biosciences, B4880 Verviers, Belgium), supplemented with phoetal bovine serum (origin USA, Gibco ref. 26140-079) and a solvent concentration of 10^-6 M alone or supplemented with 10^-6 M or 10^-7 M of compound 12, in the presence and in the absence of LPS (10microg/ml; E. coli LPS 0111:B4 strain InvivoGene, San Diego CA92121 USA) during 24 hours. Supernatant of cultures were frozen at -20°C and the concentration of TNF-alpha was quantified with ELISA species-specific (enzyme-linked immunosorbent assay for quantitative detection of tumour necrosis factor- alpha: human TNF-alpha ELISA BM S223/4TEUCE, Bender Med System Inc, Burlinghane CA 94010).

[2] = tested on: PBMC from healthy volunteers; assay: Proliferative response of PBMC, 3[H]-Thymidine incorporation; assay type: cell-based, human; details: n=8; 4 days culture; absence or presence of PHA 10 µg/ml, PHA 2 µg/ml plus IL-2 (25 IU/ml), or anti-CD3 (12.5 ng/ml) + anti-CD28 (1:320.000)
Protocol: Faced against a mitogen stimulation, lymphocytes suffer a blastogenesis and cellular differentiation process. The method used to quantify the cellular proliferation was the assay of the incorporation of ^3[H]-Thymidine to the DNA de novo synthesized, and the emission of betha-radiation from the cellular cultures dried extracts (to which the tritiated base was added) was detected before its ending and harvesting. In the different experiments performed to study the proliferation, the purified cellular preparations were incubated in 96 microwells plain bottom plates at concentrations of 5 x 10^4 cells/well (200 µl final volume), in the presence of different concentrations of various mitogens with triplicate repetitions and along 4 days of culture.
The response to a specific stimuli depended on the density and cell type studied, as well as of the culture time and of the mitogenic agent concentration. […]
PBMC was cultured during 4 days (50.000 cells per well) at 37°C and 5 % CO2 atmosphere (Cell incubator HERA Cell 150, Thermoscientific, Thermoelectron, 63505 Lagenselbold, GE) in complete culture medium. […] The DNA-incorporated radioactive was quantified by using a betha particles counter Wallac Oy.

Cc1nc(OC2CCCC2)c(-c2ccc(S(C)(=O)=O)cc2)s1 [compound 12, 4-cyclopentyloxy-5-(4-methylsulfonyl-phenyl)-2-methylthiazole]
TNF-alpha production in PMBC from healthy volunteers ([1]; LPS (10µg/ml), 10^-6 M, vehicle 3084.63±450.00, p 0.005): 1064.91±52.82 (0.005) pg/mL
TNF-alpha production in PMBC from healthy volunteers ([1]; LPS (10µg/ml), 10^-7 M, vehicle 3084.63±450.00, p 0.028): 1938.00±487.74 (0.028) pg/mL
TNF-alpha production in PMBC from healthy volunteers ([1]; medium (no stimulus), 10^-6 M, vehicle 1118.00±800.00, p 0.009): 551.60±324.17 (0.009) pg/mL
TNF-alpha production in PMBC from healthy volunteers ([1]; medium (no stimulus), 10^-7 M, vehicle 1118.00±800.00, p 0.114): 1121.00±100.48 (0.114) pg/mL
proliferative response of the PBMC from healthy volunteers [2]: did not significantly modify
